{"source": "patent US9101638B2", "about": "“Boronic acid derivatives and therapeutic uses thereof” (Rempex Pharmaceuticals, Inc., priority 2013, dated 2015)", "key": {"[1]": {"test_system": "KP1004 (KPC-2)", "assay": "Potentiation of biapenem, strain KP1004", "format": "cell-based", "conditions": "strain KP1004 KPC-2, biapenem alone", "procedure": "(§1) Biapenem was present in the test medium at 1 μg/mL. […] Table 3 summarizes the BLI potency of biapenem potentiation (MPC@1) for two strains overexpressing class A (KPC) and class D (OXA-48) carbapenemases. Biapenem MIC for each strain is also shown."}, "[2]": {"test_system": "KP1086 (OXA-48)", "assay": "Potentiation of biapenem, strain KP1086", "format": "cell-based", "conditions": "strain KP1086 OXA-48, biapenem alone", "procedure": "as §1"}, "[3]": {"test_system": "PAM1032/KPC-2", "assay": "Biapenem potentiation in PAM1032/KPC-2 (MexAB-OprM overexpressed)", "format": "cell-based, Pseudomonas aeruginosa", "conditions": "Pseudomonas aeruginosa", "procedure": "(§2) Efflux of BLIs from Pseudomonas aeruginosa by the MexAB-OprM efflux pump was also evaluated. […] Due to expression of KPC-2 both strains became resistant to biapenem. […] Potency of BLIs to potentiate biapenem in these strains was determined. […] The ratio of MPC64 values for each BLI in PAM1032/KPC-2 (efflux proficient) and PAM1154/KPC-2 (efflux deficient) was determined to generate the Efflux Index (EI)."}, "[4]": {"test_system": "PAM1154/KPC-2", "assay": "Biapenem potentiation in PAM1154/KPC-2 (MexAB-OprM lacking)", "format": "cell-based, Pseudomonas aeruginosa", "conditions": "Pseudomonas aeruginosa", "procedure": "as §2"}, "[5]": {"target": "T1, Trypsin (Bos taurus, UniProt P00760)", "T1 construct": "purchased Calbiochem 6502", "T1 sequence (P00760 24-246)": "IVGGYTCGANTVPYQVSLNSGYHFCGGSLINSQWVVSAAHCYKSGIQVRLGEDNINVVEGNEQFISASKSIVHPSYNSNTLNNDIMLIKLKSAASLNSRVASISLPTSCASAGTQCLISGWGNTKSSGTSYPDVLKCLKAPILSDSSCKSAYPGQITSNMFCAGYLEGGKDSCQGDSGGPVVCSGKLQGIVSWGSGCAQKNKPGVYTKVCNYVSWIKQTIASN", "assay": "Serine protease inhibition: trypsin", "format": "biochemical, mammalian", "procedure": "(§3) The effect of selected BLIs on the enzymatic activity of some common mammalian serine proteases was evaluated.\n(§4) 50 μl of the diluted enzyme was mixed with 50 μl of inhibitor at various concentrations and 50 μl of corresponding buffer (Table 7). Reaction mixtures were incubated for 10 min at 37° C. Subsequently, 50 μl of corresponding substrate (Table 7) was added and absorbance or fluorescence was monitored for 30 min on SpectraMax M2 plate reader (Molecular Devices). 4-(2-Aminoethyl)benzenesulfonyl fluoride hydrochloride (AEBSF) and leupeptin were used as positive controls. Rates of reaction were calculated and presented relative to “no treatment” control."}, "[6]": {"target": "T2, Chymotrypsin (Bos taurus, UniProt P00766)", "T2 construct": "purchased Calbiochem 230832", "assay": "Serine protease inhibition: chymotrypsin", "format": "biochemical, mammalian", "procedure": "as §3, §4"}, "[7]": {"target": "T3, Thrombin (Homo sapiens, UniProt P00734)", "T3 construct": "Thrombin; MPBio; 19491880; purchased MPBio 19491880", "assay": "Serine protease inhibition: thrombin", "format": "biochemical, mammalian", "conditions": "Table 8A, positive controls, numeric; read-out: IC50 Thrombin", "procedure": "as §3, §4"}, "[8]": {"target": "T4, Plasmin (Homo sapiens, UniProt P00747)", "T4 construct": "Plasmin; MPBio; 19419890; purchased MPBio 19419890", "T4 sequence (P00747 581-810 limits assumed, species assumed)": "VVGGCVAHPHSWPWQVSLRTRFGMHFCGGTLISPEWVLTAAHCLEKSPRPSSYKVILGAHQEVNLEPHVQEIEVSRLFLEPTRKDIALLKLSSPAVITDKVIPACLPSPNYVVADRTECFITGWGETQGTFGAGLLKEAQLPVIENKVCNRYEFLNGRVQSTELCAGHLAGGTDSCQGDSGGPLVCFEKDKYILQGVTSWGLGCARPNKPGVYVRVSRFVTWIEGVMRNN", "T4 sequence (P00747 97-580 partner limits assumed, species assumed)": "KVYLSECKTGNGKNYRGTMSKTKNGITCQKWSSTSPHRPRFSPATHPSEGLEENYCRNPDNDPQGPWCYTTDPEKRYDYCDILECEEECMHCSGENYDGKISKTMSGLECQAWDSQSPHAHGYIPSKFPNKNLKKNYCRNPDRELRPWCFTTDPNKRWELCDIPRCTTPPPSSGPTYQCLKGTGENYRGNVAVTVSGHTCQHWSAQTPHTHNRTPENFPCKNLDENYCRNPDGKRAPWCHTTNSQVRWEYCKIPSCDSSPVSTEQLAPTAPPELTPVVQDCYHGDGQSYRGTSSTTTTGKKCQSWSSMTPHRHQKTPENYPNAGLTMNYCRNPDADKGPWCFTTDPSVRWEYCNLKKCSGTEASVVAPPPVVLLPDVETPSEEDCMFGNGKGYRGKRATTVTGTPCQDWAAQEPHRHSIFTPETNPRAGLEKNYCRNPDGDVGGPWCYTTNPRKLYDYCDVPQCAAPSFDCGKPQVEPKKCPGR", "assay": "Serine protease inhibition: plasmin", "format": "biochemical, mammalian", "procedure": "as §3, §4"}, "[9]": {"target": "T5, Elastase (Sus scrofa, UniProt P00772)", "T5 construct": "purchased Calbiochem 324682", "T5 sequence (P00772 27-266)": "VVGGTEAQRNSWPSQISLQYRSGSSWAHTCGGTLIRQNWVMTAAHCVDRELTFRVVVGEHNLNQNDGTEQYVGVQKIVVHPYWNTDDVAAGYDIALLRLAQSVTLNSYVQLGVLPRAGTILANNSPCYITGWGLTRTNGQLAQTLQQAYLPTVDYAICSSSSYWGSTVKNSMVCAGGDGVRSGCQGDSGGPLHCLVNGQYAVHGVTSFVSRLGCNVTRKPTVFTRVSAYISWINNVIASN", "assay": "Serine protease inhibition: elastase", "format": "biochemical, mammalian", "procedure": "as §3, §4"}, "[10]": {"target": "T6, Urokinase (Homo sapiens, UniProt P00749)", "T6 construct": "purchased Calbiochem 672112", "assay": "Serine protease inhibition: urokinase", "format": "biochemical, mammalian", "conditions": "Table 8A, positive controls, numeric; read-out: IC50 Urokinase", "procedure": "as §3, §4"}, "[11]": {"target": "T7, Chymase (Homo sapiens, UniProt P23946)", "T7 construct": "purchased Enzo Lifescience BML-SE281", "T7 sequence (P23946 22-247)": "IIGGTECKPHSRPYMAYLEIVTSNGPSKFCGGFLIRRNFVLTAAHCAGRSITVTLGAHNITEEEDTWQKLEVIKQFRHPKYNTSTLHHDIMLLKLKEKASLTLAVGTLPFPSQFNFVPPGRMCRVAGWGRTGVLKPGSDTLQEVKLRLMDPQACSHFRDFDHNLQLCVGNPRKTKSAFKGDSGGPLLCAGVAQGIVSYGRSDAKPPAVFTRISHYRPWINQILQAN", "assay": "Serine protease inhibition: chymase", "format": "biochemical, mammalian", "conditions": "Table 8A, positive controls, numeric; read-out: IC50 Chymase", "procedure": "as §3, §4"}, "[12]": {"target": "T8, Neutrophil elastase (Homo sapiens, UniProt P08246)", "T8 construct": "purchased Calbiochem 324681", "T8 sequence (P08246 30-267)": "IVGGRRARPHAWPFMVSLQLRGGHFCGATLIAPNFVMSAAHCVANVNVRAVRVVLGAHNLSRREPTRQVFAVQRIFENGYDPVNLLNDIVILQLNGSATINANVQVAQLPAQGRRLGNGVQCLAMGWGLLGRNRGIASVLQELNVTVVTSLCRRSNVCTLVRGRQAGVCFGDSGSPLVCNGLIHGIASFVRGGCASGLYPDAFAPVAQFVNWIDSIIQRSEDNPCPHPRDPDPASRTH", "assay": "Serine protease inhibition: neutrophil elastase", "format": "biochemical, mammalian", "conditions": "Table 8B; read-out: IC50 Neutrophil elastase", "procedure": "as §3, §4"}, "[13]": {"target": "T9, CathepsinA (Homo sapiens, UniProt P10619)", "T9 construct": "purchased R&D Systems 1049-SE", "T9 sequence (P10619 29-480)": "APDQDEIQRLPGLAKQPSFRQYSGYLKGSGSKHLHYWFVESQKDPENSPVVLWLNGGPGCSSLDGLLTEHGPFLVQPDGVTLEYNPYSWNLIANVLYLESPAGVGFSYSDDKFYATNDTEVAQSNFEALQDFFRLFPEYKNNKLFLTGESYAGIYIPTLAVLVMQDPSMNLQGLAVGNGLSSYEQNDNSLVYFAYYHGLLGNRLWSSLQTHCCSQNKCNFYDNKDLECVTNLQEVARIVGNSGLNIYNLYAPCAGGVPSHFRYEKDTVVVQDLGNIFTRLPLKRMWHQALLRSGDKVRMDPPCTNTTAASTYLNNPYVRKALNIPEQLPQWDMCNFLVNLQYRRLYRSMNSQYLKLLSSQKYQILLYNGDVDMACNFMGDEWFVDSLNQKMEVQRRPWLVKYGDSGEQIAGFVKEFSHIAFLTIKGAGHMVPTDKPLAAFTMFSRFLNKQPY", "assay": "Serine protease inhibition: cathepsin A", "format": "biochemical, mammalian", "procedure": "as §3, §4"}, "[14]": {"target": "T10, HtrA2 (Homo sapiens, UniProt O43464)", "T10 sequence (O43464 134-458)": "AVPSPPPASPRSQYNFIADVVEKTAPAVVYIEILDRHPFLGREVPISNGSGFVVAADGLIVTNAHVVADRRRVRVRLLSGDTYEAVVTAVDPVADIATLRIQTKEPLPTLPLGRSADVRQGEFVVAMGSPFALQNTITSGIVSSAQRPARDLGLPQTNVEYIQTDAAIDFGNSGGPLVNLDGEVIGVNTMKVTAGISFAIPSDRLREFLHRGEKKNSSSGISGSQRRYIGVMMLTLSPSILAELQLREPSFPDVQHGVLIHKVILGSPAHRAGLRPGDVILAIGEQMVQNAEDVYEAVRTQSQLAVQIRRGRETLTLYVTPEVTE", "assay": "Serine protease inhibition: HtrA2", "format": "biochemical, mammalian", "procedure": "as §3, §4"}, "[15]": {"target": "T11, Dipeptidyl peptidase 7 (DPP7) (Homo sapiens, UniProt Q9UHL4)", "T11 construct": "purchased R&D Systems 3438-SE", "assay": "Serine protease inhibition: DPP7", "format": "biochemical, mammalian", "procedure": "as §3, §4"}, "[16]": {"target": "T12, Dipeptidyl peptidase 8 (DPP8) (Homo sapiens, UniProt Q6V1X1)", "T12 construct": "purchased BPS Bioscience 80080", "T12 sequence (Q6V1X1 whole entry)": "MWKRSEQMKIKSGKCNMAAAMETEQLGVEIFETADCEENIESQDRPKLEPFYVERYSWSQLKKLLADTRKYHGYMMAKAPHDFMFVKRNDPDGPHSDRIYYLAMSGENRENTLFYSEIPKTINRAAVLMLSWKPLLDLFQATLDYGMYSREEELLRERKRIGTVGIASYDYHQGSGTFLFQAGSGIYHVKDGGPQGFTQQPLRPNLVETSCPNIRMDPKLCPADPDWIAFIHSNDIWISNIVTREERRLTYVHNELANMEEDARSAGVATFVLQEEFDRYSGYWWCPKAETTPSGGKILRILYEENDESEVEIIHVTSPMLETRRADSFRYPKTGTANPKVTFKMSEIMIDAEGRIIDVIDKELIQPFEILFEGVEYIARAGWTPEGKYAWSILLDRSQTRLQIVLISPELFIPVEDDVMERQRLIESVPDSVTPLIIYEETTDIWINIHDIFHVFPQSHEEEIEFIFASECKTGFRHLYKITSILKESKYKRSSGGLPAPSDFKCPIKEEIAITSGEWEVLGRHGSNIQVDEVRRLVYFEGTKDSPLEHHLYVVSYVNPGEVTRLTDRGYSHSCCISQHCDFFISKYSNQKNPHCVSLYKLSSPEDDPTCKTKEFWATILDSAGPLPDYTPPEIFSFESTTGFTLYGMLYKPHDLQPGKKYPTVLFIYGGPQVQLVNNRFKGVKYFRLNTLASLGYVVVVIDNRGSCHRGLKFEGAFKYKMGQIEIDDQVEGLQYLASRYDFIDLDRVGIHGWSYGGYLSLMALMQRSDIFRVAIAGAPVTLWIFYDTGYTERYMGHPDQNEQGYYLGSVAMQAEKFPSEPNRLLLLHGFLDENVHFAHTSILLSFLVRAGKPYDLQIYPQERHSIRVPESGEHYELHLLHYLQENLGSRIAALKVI", "assay": "Serine protease inhibition: DPP8", "format": "biochemical, mammalian", "procedure": "as §3, §4"}, "[17]": {"target": "T13, Dipeptidyl peptidase 9 (DPP9) (Homo sapiens, UniProt Q86TI2)", "T13 construct": "purchased BPS Bioscience 80090", "T13 sequence (Q86TI2 whole entry)": "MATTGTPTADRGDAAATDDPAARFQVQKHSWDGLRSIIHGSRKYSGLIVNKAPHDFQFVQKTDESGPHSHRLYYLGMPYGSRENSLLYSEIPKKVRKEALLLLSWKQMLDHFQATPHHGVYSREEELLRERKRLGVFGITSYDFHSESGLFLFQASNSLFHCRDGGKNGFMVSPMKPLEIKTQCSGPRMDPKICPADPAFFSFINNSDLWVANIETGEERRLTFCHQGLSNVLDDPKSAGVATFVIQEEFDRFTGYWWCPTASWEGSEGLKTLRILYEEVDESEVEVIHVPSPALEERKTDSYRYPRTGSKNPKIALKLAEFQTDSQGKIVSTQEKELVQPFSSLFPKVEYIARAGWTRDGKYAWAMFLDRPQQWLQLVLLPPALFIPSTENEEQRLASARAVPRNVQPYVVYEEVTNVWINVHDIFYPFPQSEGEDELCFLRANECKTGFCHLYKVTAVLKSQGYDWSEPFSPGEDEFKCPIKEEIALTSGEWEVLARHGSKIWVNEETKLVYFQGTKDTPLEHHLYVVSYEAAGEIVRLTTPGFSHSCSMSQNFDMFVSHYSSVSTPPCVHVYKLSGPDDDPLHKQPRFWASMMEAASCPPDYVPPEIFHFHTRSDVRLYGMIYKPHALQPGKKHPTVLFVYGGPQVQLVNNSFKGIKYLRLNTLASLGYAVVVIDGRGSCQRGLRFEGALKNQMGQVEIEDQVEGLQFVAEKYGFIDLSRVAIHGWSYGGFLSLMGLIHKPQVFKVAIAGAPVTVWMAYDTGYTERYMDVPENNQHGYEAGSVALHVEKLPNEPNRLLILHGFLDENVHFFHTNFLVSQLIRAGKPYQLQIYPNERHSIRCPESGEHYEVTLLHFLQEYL", "assay": "Serine protease inhibition: DPP9", "format": "biochemical, mammalian", "procedure": "as §3, §4"}}}
{"smiles": "C[C@@H](O)[C@H]1C(=O)N2C(C(=O)[O-])=C(SC3Cn4cnc[n+]4C3)[C@H](C)[C@H]12", "note": "(some centres unmarked) [Biapenem, reference compound]", "values": [{"measurement": "MIC", "setting": "[1]", "result": 32, "unit": "µg/mL"}, {"measurement": "MIC", "setting": "[2]", "result": 16, "unit": "µg/mL"}, {"measurement": "MIC", "setting": "[3]", "result": 32, "unit": "µg/mL"}, {"measurement": "MIC", "setting": "[4]", "result": 32, "unit": "µg/mL"}]}
{"smiles": "CC(=O)N[C@@H](CC(C)C)C(=O)N[C@@H](CC(C)C)C(=O)N[C@H](C=O)CCCNC(=N)N", "note": "[Leupeptin, leupeptin, reference compound]", "values": [{"measurement": "IC50", "setting": "[5]", "result": "< 0.27", "unit": "µM"}, {"measurement": "IC50", "setting": "[6]", "result": "> 200", "unit": "µM"}, {"measurement": "IC50", "setting": "[7]", "result": 15, "unit": "µM"}, {"measurement": "IC50", "setting": "[8]", "result": 5, "unit": "µM"}, {"measurement": "IC50", "setting": "[9]", "result": "> 200", "unit": "µM"}, {"measurement": "IC50", "setting": "[10]", "result": 22, "unit": "µM"}, {"measurement": "IC50", "setting": "[11]", "result": "> 200", "unit": "µM"}, {"measurement": "IC50", "setting": "[12]", "result": "15 to 500", "unit": "µM"}, {"measurement": "IC50", "setting": "[13]", "result": "15 to 500", "unit": "µM"}, {"measurement": "IC50", "setting": "[14]", "result": "> 500", "unit": "µM"}, {"measurement": "IC50", "setting": "[15]", "result": "15 to 500", "unit": "µM"}, {"measurement": "IC50", "setting": "[16]", "result": "15 to 500", "unit": "µM"}, {"measurement": "IC50", "setting": "[17]", "result": "15 to 500", "unit": "µM"}]}
